# Experimental data: patent US8017635B2, “Phenylalkyl substituted heteroaryl derivatives” (FMC Corporation, priority 2005, dated 2011)
# Test system: tobacco budworm (Heliothis virescens [Fabricius])
# Test: surface-treated diet test against tobacco budworm
# Type: in vivo
# Settings: 0.25 millimolar candidate insecticide on the surface of the diet, second instar larvae, five-day exposure; for Percent Growth Inhibition: inhibition of insect weight relative to untreated controls; for Percent Mortality: mortality compared to the total number of insects infested
# Protocol: Candidate insecticides were evaluated for activity against the tobacco budworm (Heliothis virescens [Fabricius]) in a surface-treated diet test.
# In this test one mL of molten (65-70° C.) wheat germ-based artificial diet was pipetted into each well of a four by six (24 well) multi-well plate (ID# 430345-15.5 mm diameter×17.6 mm deep; Corning Costar Corp., One Alewife Center, Cambridge, Mass. 02140). The diet was allowed to cool to ambient temperature before treatment with the candidate insecticide.
# For a determination of insecticidal activity, solutions of the candidate insecticides were prepared for testing using a Packard 204DT Multiprobe® Robotic System (Packard Instrument Company, 800 Research Parkway, Meriden, Conn. 06450), in which the robot first diluted a standard 50 millimolar DMSO solution of the candidate insecticide with a 1:1 water/acetone solution (V/V) in a ratio of 1:7 stock solution to water/acetone. The robot subsequently pipetted 40 microliters of the so-prepared solution onto the surface of the diet in each of three wells in the 24 multi-well plate. The process was repeated with solutions of seven other candidate insecticides. Once treated, the contents of the multi-well plate were allowed to dry, leaving […] of candidate insecticide on the surface of the diet, or a concentration of 0.25 millimolar. Appropriate untreated controls containing only DMSO on the diet surface were also included in this test. […]
# In each well of the test plate was placed a second instar tobacco budworm larvae, weighing approximately five milligrams. After the larvae were placed in each well, the plate was sealed with clear polyfilm adhesive tape. The tape over each well was perforated to ensure an adequate air supply. The plates were then held in a growth chamber at 25° C. and 60% relative humidity for five days (light 14 hours/day).
# After the five-day exposure period insecticidal activity for each rate of application of candidate insecticide was assessed as percent inhibition of insect weight relative to the weight of insects from untreated controls, and percent mortality when compared to the total number of insects infested.
# The test compounds of formula I are identified by numbers that correspond to those in Table 1.
Molecule,Percent Growth Inhibition [%],Percent Mortality [%]
ClC(Cl)=CCOc1cc(Cl)c(OCCn2cc(Cc3ccccc3)nn2)c(Cl)c1 [Compound 1-4],100,100
CC(C)Cc1cn(CCOc2c(Cl)cc(OCC=C(Cl)Cl)cc2Cl)nn1 [Compound 1-6],49,0
CC(C)(C)c1cn(CCOc2c(Cl)cc(OCC=C(Cl)Cl)cc2Cl)nn1 [Compound 1-7],100,100
Fc1ccc(-c2cn(CCOc3c(Cl)cc(OCC=C(Cl)Cl)cc3Cl)nn2)c(F)c1 [Compound 1-15],100,100
"FC(F)(F)c1ccc(-c2n[nH]c(CCOc3c(Cl)cc(OCC=C(Cl)Cl)cc3Cl)n2)cc1 [Compound 8-2, 5-(3,3-dichloroprop-2-enyloxy)-1,3-dichloro-2-(2-(3-(4-trifluoromethylphenyl)(1,2,4-triazolyl))ethoxy)benzene]",100,100
"FC(F)(F)c1cccc(-c2nnn(CCOc3c(Cl)cc(OCC=C(Cl)Cl)cc3Cl)n2)c1 [Compound 7-54, 5-(3,3-dichloroprop-2-enyloxy)-1,3-dichloro-2(-2-(5-(3-trifluoromethylphenyl)(1,2,3,4-tetraazol-2-yl))ethoxy)benzene]",100,100
FC(F)(F)c1ccc(-c2cn(CCOc3c(Cl)cc(OCC=C(Cl)Cl)cc3Cl)nn2)nc1 [Compound 1-18],100,100
FC(F)(F)c1cccc(-c2cn(CCOc3c(Cl)cc(OCC=C(Cl)Cl)cc3Cl)nn2)c1 [Compound 1-14],100,100
ClC(Cl)=CCOc1cc(Cl)c(OCCn2cnc(-c3ccccc3)c2)c(Cl)c1 [Compound 2-1],100,100
C[Si](C)(C)c1cn(CCCOc2c(Cl)cc(OCC=C(Cl)Cl)cc2Cl)nn1 [Compound 1-19],100,100
ClC(Cl)=CCOc1cc(Cl)c(OCCn2nnc(-c3ccccc3Cl)n2)c(Cl)c1 [Compound 7-55],100,100
FC(F)(F)c1ccc(-c2cn(CCOc3c(Cl)cc(OCC=C(Cl)Cl)cc3Cl)nn2)cc1 [Compound 1-1],100,100
ClC(Cl)=CCOc1cc(Cl)c(OCCn2nnc(-c3cccc(Cl)c3)n2)c(Cl)c1 [Compound 7-56],100,100
FC(F)(F)c1ccc(-c2cn(CCCOc3c(Cl)cc(OCC=C(Cl)Cl)cc3Cl)nn2)cc1 [Compound 1-9],100,100
"5-(3,3-dichloroprop-2-enyloxy)-1,3-dichloro-2-(2-(4-(4-chlorophenyl)-1,2,3-triazolyl)ethoxy)benzene [Compound 1-2]",100,100
FC(F)(F)c1ccc(-c2nnn(CCOc3c(Cl)cc(OCC=C(Cl)Cl)cc3Cl)n2)cc1 [Compound 7-2],100,100
ClC(Cl)=CCOc1cc(Cl)c(OCCn2cc(-c3ccc(Cl)cc3Cl)nn2)c(Cl)c1 [Compound 1-8],33,0
ClC(Cl)=CCOc1cc(Cl)c(OCCn2cc(-c3cccc(Cl)c3)nn2)c(Cl)c1 [Compound 1-12],100,100
FC(F)(F)c1ccc(OCc2cn(CCOc3c(Cl)cc(OCC=C(Cl)Cl)cc3Cl)nn2)cc1 [Compound 1-69],71,17
ClC(Cl)=CCOc1cc(Cl)c(OCCn2cc(-c3ccccc3Cl)nn2)c(Cl)c1 [Compound 1-11],100,100
"FC(F)(F)c1cccc(-c2noc(COc3c(Cl)cc(OCC=C(Cl)Cl)cc3Cl)n2)c1 [Compound 14-54, 5-(3,3-dichloroprop-2-enyloxy)-1,3-dichloro-2((3-(3-trifluoromethylphenyl)(1,2,4-oxadiazol-5-yl))methoxy)benzene]",100,100
ClC(Cl)=CCOc1cc(Cl)c(OCCn2cc(CC3CCCC3)nn2)c(Cl)c1 [Compound 1-5],100,100
ClC(Cl)=CCOc1cc(Cl)c(OCCn2cc(-c3ccc(Oc4ccccc4)cc3)nn2)c(Cl)c1 [Compound 1-17],100,67
ClC(Cl)=CCOc1cc(Cl)c(OCCn2nnc(-c3ccccc3)n2)c(Cl)c1 [Compound 7-1],100,100
ClC(Cl)=CCOc1cc(Cl)c(OCCn2cc(-c3ccc(Cl)c(Cl)c3)nn2)c(Cl)c1 [Compound 1-3],100,100
CN(C)c1ccc(-c2cn(CCOc3c(Cl)cc(OCC=C(Cl)Cl)cc3Cl)nn2)cc1 [Compound 1-16],91,67
